US20210322324A1, “METHOD FOR TREATING PRIMARY SCLEROSING CHOLANGITIS” (AVOLYNT, priority 2018, published 2021)
“Also recorded” adds a separate entry of the source.

What was measured:
[1] = Plasma remogliflozin after oral compressed IR tablet of remogliflozin etabonate; assay type: in vivo; conditions: 350 mg remogliflozin etabonate, after 3 hrs
Source text: Oral dosage forms according to the invention are typically tablets or capsules. Tablets can be obtained by direct compression of the mixed components of a dosage form, including an effective dosage amount of remogliflozin etabonate, and selected excipients, like cellulose derivatives, metacrylates, chitosan, carboxymethylstarch (CMS), or mixtures thereof. For example, a compressed tablet according to the invention, can be prepared by granulating remogliflozin etabonate, microcrystalline cellulose and croscarmellose sodium with a water and povidone solution. The resulting granules are dried, milled, and then blended with mannitol, microcrystalline cellulose, and croscarmellose. The blend is lubricated with magnesium stearate and compressed. […] Indeed, Tmax for an IR remogliflozin etabonate oral dosage form according to the invention occurs at 1 hour, or less, following ingestion of the dosage form by a subject.

[2] = system: TIA mice; experiment: TIA mouse model of primary sclerosing cholangitis, liver histology after remogliflozin etabonate-formulated diet; assay type: in vivo
Source text: The following Examples describe the utilization of a murine model of […] (“PSC”) to assess the effectiveness of a treatment regimen based on the oral administration of remogliflozin etabonate. The murine PSC model is based on mice that are deficient for the expression of tumor necrosis factor alpha (“TNFα”), interleukin 10 (“IL-10”), and activation-induced cytidine deaminase (“AICDA”). As the mice are deficient in TNF, IL-10, and AICDA, they are referred to, herein, as “TIA” mice.
Moreover, as AICDA is required for immunoglobulin (“Ig”) class switching, TIA mice lack IgG and IgA, a phenotype analogous to humans with hyper-IgM syndrome. Therefore, with the combination of AICDA deficiency with the risk factors associated with TNFα and IL-10 deficiencies, TIA mice also develop liver and biliary inflammation reminiscent of PSC symptoms in humans. Accordingly, the TIA model is useful for investigating mechanisms that act early in PSC pathogenesis, as well as treatments that can prevent progression to PSC.
Example 1. Orally-administered remogliflozin etabonate reduces inflammatory cell infiltration, bile ductular proliferation, and interface hepatitis in TIA mice. TIA mice were created by first breeding TNFα knock out (“KO”) C57BL/6 mice, (strain B6.129S-Tnf^tm1Gkl/J, stock #005540, Jackson Laboratories, Bar Harbor, Me.) with IL-10 KO mice (strain B10.129P2(B6)-IL10^tm1Cgn/J, Stock No. 002251, Jackson Laboratories) to produce a population of mice that were deficient in TNFα and IL-10. Because mice with a TNFα−/− and IL10−/− genotype spontaneously develop inflammatory bowel disease (“IBD”) (Hale 2012), a condition associated with poor breeding success (Nagy 2016), the mice needed for further breeding to generate an AICDA population, were generated by breeding offspring with a TNFα and IL10+/− genotype with AICDA−/− mice, which were obtained from Dr. Tasuku Honjo (Muramatsu 2000)), to produce a population of TNFα−/−, IL10−/−, and AICDA+/−(“TI-hetA”) males and females. In turn, TI-hetA pairs were bred to generate populations that were 25% TIA mice, and 50% non-colitis-susceptible TI-hetA littermates that could be used as control populations. All populations were exposed to the same environment from birth. The mice were housed in polycarbonate micro-isolator cages, in individually ventilated racks, under barrier conditions that excluded all known pathogens, including Helicobacter pylori and Norovirus. Mice had ad libitum access to water, and to a standard diet (PicoLab Mouse Diet 20/5058, LabDiet, St. Louis, Mo., USA).
At four (4) weeks of age, TIA (40) and TI-hetA (22) mice were randomized into experimental groups that received either a standard diet (20 TIA and 12 het), or a standard diet formulated 0.03% remogliflozin etabonate (20 TIA and 10 het) (Avolynt Inc., USA). The mice were maintained on this diet for seven (7) weeks. Body weights were obtained three (3) times, weekly, to assess the general health of mice, and to track the development of inflammatory bowel disease (IBD). Glycosuria in the experimental groups was assessed by applying freshly voided urine directly to the glucose test patch on an Accutest® URS-10 urinary reagent test strips (Jant Pharmaceutical Corp., Encino, Calif., USA). Mice were humanely euthanized before reaching the experimental endpoint, of eleven (11) weeks of age, if they lost >15% body weight, or developed rectal prolapse.
To characterize biliary lesions in TIA mice at the end of the 7 week treatment period, liver tissue was obtained from the remogliflozin-treated, and untreated groups, for histologic examination. The excised liver tissue was fixed in Carnoy's fixative solution, and processed into paraffin blocks. The paraffin blocks were sectioned, and stained with Hematoxylin and eosin (H&E) for pathologic analysis. The H&E-stained sections were scored by an American Board of Pathology-certified pathologist. […]

[3] = TIA mice, 0.03% in diet for 7 weeks, vs untreated TIA mice, 11 weeks

## CCOC(=O)OC[C@H]1O[C@@H](Oc2nn(C(C)C)c(C)c2Cc2ccc(OC(C)C)cc2)[C@H](O)[C@@H](O)[C@@H]1O [remogliflozin etabonate, 5-methyl-4-[4-(1-methylethoxy)benzyl]-1-(1-methylethyl)-1H-pyrazol-3-yl 6-O-(ethoxycarbonyl)-β-D-glucopyranoside]
[1]
  remogliflozin plasma concentration after clearance: 40 ng/mL
[2]; [3]
  inflammation at the interface between the hepatic parenchyma and the portal tracts (interface hepatitis): reduces; also recorded: less inflammation at the interface between the hepatic parenchyma and the portal tracts
  proliferation of bile ductules (bile ductular proliferation): reduces; also recorded: less proliferation of bile ductiles
[2]; TIA mice, 0.03% in diet for 7 weeks, vs untreated TIA mice, 11 weeks, listed as Remo
  proliferation of bile ductules (bile ductular proliferation): decrease in proliferation of bile ductules
[2]; TIA mice, 0.03% remogliflozin etabonate in diet for 7 weeks from 4 weeks of age, vs standard diet, H&E liver sections at 11 weeks
  development and progression of liver and biliary disease: markedly less development and progression of liver and biliary disease
[2]; TIA mice, 7-week study, euthanasia on >15% body weight loss or rectal prolapse
  number of TIA mice that required early euthanasia, Remo group versus control group: no statistical difference
[2]; TIA mice, orally administered in diet
  inflammatory cell infiltration: reduces
[2]; TIA mouse at 11 weeks, 0.03% Remo in chow from 4 weeks of age, H&E liver section
  periportal and biliary inflammation: decrease in periportal and biliary inflammation
